Source: patent publication US10227357B2, “Compounds and methods for kinase modulation, and indications therefor” (Plexxikon Inc., priority 2012, dated 2019)

Legend:
c-kit kinase = target: T1, c-kit kinase (Homo sapiens, UniProt P10721); assay: c-Kit biochemical assay, AlphaScreen, 10 μM ATP; conditions: c-kit biochemical inhibitory activity; read-out: Biochemical activity (IC50 μM) Kit
T1 construct: The c-kit (or kinase domain thereof) is an active kinase in AlphaScreen; poly-Histidine tag (in-house protein only) (cleaved yes); host or cells: E. coli BL21(DE3)RIL, co-expressed with PTP1B
T1 sequence (P10721 26-976): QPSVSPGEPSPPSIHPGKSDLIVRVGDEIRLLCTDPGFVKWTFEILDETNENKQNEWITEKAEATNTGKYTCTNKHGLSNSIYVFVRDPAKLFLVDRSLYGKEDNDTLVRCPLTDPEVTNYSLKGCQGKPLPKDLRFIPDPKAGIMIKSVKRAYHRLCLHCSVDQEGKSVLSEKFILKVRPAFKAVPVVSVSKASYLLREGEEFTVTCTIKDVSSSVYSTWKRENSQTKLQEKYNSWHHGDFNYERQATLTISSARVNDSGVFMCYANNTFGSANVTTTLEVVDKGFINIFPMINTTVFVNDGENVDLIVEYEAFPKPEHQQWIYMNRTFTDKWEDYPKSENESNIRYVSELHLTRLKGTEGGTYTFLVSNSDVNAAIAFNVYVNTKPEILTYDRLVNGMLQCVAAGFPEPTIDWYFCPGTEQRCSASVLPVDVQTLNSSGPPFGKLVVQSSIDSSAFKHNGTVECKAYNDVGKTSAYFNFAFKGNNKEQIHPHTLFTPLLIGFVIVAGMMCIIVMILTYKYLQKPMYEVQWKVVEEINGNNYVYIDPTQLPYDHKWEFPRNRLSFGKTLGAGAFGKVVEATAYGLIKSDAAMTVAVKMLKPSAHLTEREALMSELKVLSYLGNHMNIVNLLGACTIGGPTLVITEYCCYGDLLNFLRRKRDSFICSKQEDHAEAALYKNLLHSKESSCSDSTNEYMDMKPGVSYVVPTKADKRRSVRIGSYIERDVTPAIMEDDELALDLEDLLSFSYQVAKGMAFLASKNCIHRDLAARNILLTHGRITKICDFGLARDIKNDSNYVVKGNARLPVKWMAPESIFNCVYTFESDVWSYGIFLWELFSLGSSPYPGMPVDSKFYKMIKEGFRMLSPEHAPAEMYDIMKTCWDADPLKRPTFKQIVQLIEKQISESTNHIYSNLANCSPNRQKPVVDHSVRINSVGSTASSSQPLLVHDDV
Summary of the method: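 His-tagged c-Kit expressed in E. coli with co-expressed PTP1B (dephosphorylated), tag removed; 0.1 ng per reaction with biotinylated-peptide substrate in 50 mM HEPES pH 7.2, 5 mM MgCl2, 5 mM MnCl2, 5% DMSO, 10 μM ATP, 1 h at room temperature. Phosphorylation detected by AlphaScreen (streptavidin donor, PY20 acceptor beads); IC50 from 8-point 1:3 dilution series.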

c-kit mutant D816V = target: T2, c-kit mutant D816V (Homo sapiens, UniProt P10721, D816V/DEL694-753); assay: c-Kit mutant D816V biochemical assay, AlphaScreen; conditions: c-kit D816V biochemical inhibitory activity; read-out: Biochemical activity (IC50 μM) Kit D816V
T2 construct: residues 551-934, kinase insertion domain residues 694-753 deleted; 6x-histidine (N); made in house; host or cells: E. coli Arctic Express (DE3) RIL (Stratagene)
T2 sequence (P10721 with tags, fused parts or gaps DEL694-753/D816V): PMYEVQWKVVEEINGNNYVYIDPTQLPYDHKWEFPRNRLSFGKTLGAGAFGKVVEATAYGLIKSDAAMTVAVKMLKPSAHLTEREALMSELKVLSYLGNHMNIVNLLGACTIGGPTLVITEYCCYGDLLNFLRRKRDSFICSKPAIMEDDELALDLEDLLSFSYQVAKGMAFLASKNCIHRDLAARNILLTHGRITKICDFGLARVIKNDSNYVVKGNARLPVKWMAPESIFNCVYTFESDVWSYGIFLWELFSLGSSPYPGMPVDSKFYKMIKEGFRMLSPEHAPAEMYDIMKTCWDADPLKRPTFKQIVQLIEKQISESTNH
Summary of the method: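 Purified His-tagged c-Kit D816V (E. coli-expressed) assayed in 25 mM HEPES pH 7.2 with Mg/Mn, 5% DMSO and 10 μM ATP, 30 min at room temperature, 8-point 1:3 dilutions. Phosphorylation detected by AlphaScreen with streptavidin donor and PY20 acceptor beads; IC50 from signal versus concentration.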

SMILES | IC50 (c-kit kinase) [µM] | IC50 (c-kit mutant D816V) [µM]
Cc1ccc(-c2cc3c(N4CCN(C(=O)N[C@@H](C)c5cccc(Cl)c5)C(C)(C)C4)ncnc3[nH]2)cn1 [P-0001, N-[(1S)-1-(3-chlorophenyl)ethyl]-2,2-dimethyl-4-[6-(6-methyl-3-pyridyl)-7H-pyrrolo[2,3-d]pyrimidin-4-yl]piperazine-1-carboxamide] | 1 to 10 | 0.0001 to 1
Cc1ccc(-c2cc3c(N4CCN(C(=O)N[C@@H](C)c5cccc(OC(F)F)c5)C(C)(C)C4)ncnc3[nH]2)cn1 [P-0002, N-[(1S)-1-[3-(difluoromethoxy)phenyl]ethyl]-2,2-dimethyl-4-[6-(6-methyl-3-pyridyl)-7H-pyrrolo[2,3-d]pyrimidin-4-yl]piperazine-1-carboxamide] | 1 to 10 | 0.0001 to 1
COc1cccc([C@H](C)NC(=O)N2CCN(c3ncnc4[nH]c(C)cc34)CC2)c1 [P-0003, N-[(1S)-1-(3-methoxyphenyl)ethyl]-4-(6-methyl-7H-pyrrolo[2,3-d]pyrimidin-4-yl)piperazine-1-carboxamide] | 10 to 200 | 0.0001 to 1
COc1cc([C@H](C)NC(=O)N2CCN(c3ncnc4[nH]c(-c5ccc(F)cc5)cc34)C[C@H]2C)ccc1F [P-0004, (2R)-N-[(1S)-1-(4-fluoro-3-methoxy-phenyl)ethyl]-4-[6-(4-fluorophenyl)-7H-pyrrolo[2,3-d]pyrimidin-4-yl]-2-methyl-piperazine-1-carboxamide] | 10 to 200 | 0.0001 to 1
C[C@H](NC(=O)N1CCN(c2ncnc3[nH]c(-c4ccc(F)cc4)cc23)CC1(C)C)c1cccc(F)c1 [P-0005, N-[(1S)-1-(3-fluorophenyl)ethyl]-4-[6-(4-fluorophenyl)-7H-pyrrolo[2,3-d]pyrimidin-4-yl]-2,2-dimethyl-piperazine-1-carboxamide] | 1 to 10 | 0.0001 to 1
C[C@H](NC(=O)N1CCN(c2ncnc3[nH]c(-c4ccc(F)cc4)cc23)CC1(C)C)c1cccc(OC(F)F)c1 [P-0006, N-[(1S)-1-[3-(difluoromethoxy)phenyl]ethyl]-4-[6-(4-fluorophenyl)-7H-pyrrolo[2,3-d]pyrimidin-4-yl]-2,2-dimethyl-piperazine-1-carboxamide] | 1 to 10 | 0.0001 to 1
Cc1ccc(-c2cc3c(N4CCN(C(=O)N[C@@H](C)c5cccc(F)c5)C(C)(C)C4)ncnc3[nH]2)cn1 [P-0007, N-[(1S)-1-(3-fluorophenyl)ethyl]-2,2-dimethyl-4-[6-(6-methyl-3-pyridyl)-7H-pyrrolo[2,3-d]pyrimidin-4-yl]piperazine-1-carboxamide] | 10 to 200 | 0.0001 to 1
C[C@H](NC(=O)N1CCN(c2ncnc3[nH]c(-c4ccc(F)cc4)cc23)CC1(C)C)c1cccc(Cl)c1 [P-0008, N-[(1S)-1-(3-chlorophenyl)ethyl]-4-[6-(4-fluorophenyl)-7H-pyrrolo[2,3-d]pyrimidin-4-yl]-2,2-dimethyl-piperazine-1-carboxamide] | 1 to 10 | 0.0001 to 1
COc1cccc([C@H](C)NC(=O)N2CCN(c3ncnc4[nH]c(-c5ccnc(OC)c5)cc34)CC2(C)C)c1 [P-0009, N-[(1S)-1-(3-methoxyphenyl)ethyl]-4-[6-(2-methoxy-4-pyridyl)-7H-pyrrolo[2,3-d]pyrimidin-4-yl]-2,2-dimethyl-piperazine-1-carboxamide] | 1 to 10 | 0.0001 to 1
Cn1cc(-c2cc3c(N4CCN(c5nc6ccccc6[nH]5)CC4)ncnc3[nH]2)cn1 [P-0010, 4-[4-(1H-benzimidazol-2-yl)piperazin-1-yl]-6-(1-methylpyrazol-4-yl)-7H-pyrrolo[2,3-d]pyrimidine] | 0.0001 to 1 | 0.0001 to 1
Fc1ccc(-c2cc3c(N4CCN(c5nc6ccccc6[nH]5)CC4)ncnc3[nH]2)cc1 [P-0011, 4-[4-(1H-benzimidazol-2-yl)piperazin-1-yl]-6-(4-fluorophenyl)-7H-pyrrolo[2,3-d]pyrimidine] | 10 to 200 | 0.0001 to 1
COc1cc(-c2cc3c(N4CCN(C(=O)N[C@@H](C)c5cccc(OC(F)F)c5)C(C)(C)C4)ncnc3[nH]2)ccn1 [P-0012, N-[(1S)-1-[3-(difluoromethoxy)phenyl]ethyl]-4-[6-(2-methoxy-4-pyridyl)-7H-pyrrolo[2,3-d]pyrimidin-4-yl]-2,2-dimethyl-piperazine-1-carboxamide] | 1 to 10 | 0.0001 to 1
Cc1ccc(-c2cc3c(N4CCN(c5nc6ccccc6[nH]5)CC4)ncnc3[nH]2)cn1 [P-0013, 4-[4-(1H-benzimidazol-2-yl)piperazin-1-yl]-6-(6-methyl-3-pyridyl)-7H-pyrrolo[2,3-d]pyrimidine] | 1 to 10 | 0.0001 to 1
O=S(=O)(NC1CCN(c2ncnc3[nH]ccc23)CC1)c1ccccc1 [P-0533, N-[1-(7H-pyrrolo[2,3-d]pyrimidin-4-yl)-4-piperidyl]benzenesulfonamide] | 10 to 200 | –
CCOc1ccc(NC(=O)NC2CCN(c3ncnc4[nH]ccc34)CC2)cc1 [P-0534, 1-(4-ethoxyphenyl)-3-[1-(7H-pyrrolo[2,3-d]pyrimidin-4-yl)-4-piperidyl]urea] | 10 to 200 | –
CCc1ccc(NC(=O)NC2CCN(c3ncnc4[nH]ccc34)CC2)cc1 [P-0535, 1-(4-ethylphenyl)-3-[1-(7H-pyrrolo[2,3-d]pyrimidin-4-yl)-4-piperidyl]urea] | 1 to 10 | –
CCCNC(=O)NC1CCN(c2ncnc3[nH]ccc23)CC1 [P-0536, 1-propyl-3-[1-(7H-pyrrolo[2,3-d]pyrimidin-4-yl)-4-piperidyl]urea] | 10 to 200 | –
O=C(NC1CCCCC1)NC1CCN(c2ncnc3[nH]ccc23)CC1 [P-0537, 1-cyclohexyl-3-[1-(7H-pyrrolo[2,3-d]pyrimidin-4-yl)-4-piperidyl]urea] | 10 to 200 | –
O=C(Nc1ccccc1)NC1CCN(c2ncnc3[nH]ccc23)CC1 [P-0538, 1-phenyl-3-[1-(7H-pyrrolo[2,3-d]pyrimidin-4-yl)-4-piperidyl]urea] | 10 to 200 | –
Cc1ccc(-c2cc3c(C4=CCC(NS(=O)(=O)c5ccc(OC(F)(F)F)cc5)CC4)ncnc3[nH]2)cn1 (stereo not shown) [P-0544, N-[4-[6-(6-methyl-3-pyridyl)-7H-pyrrolo[2,3-d]pyrimidin-4-yl]cyclohex-3-en-1-yl]-4-(trifluoromethoxy)benzenesulfonamide] | 10 to 200 | –
Cn1cc(-c2cc3c(C4=CCC(NS(=O)(=O)c5ccc(OC(F)(F)F)cc5)CC4)ncnc3[nH]2)cn1 (stereo not shown) [P-0545, N-[4-[6-(1-methylpyrazol-4-yl)-7H-pyrrolo[2,3-d]pyrimidin-4-yl]cyclohex-3-en-1-yl]-4-(trifluoromethoxy)benzenesulfonamide] | 1 to 10 | –
COc1cccc([C@H](C)NC(=O)N2CCN(c3ncnc4cc(N5CCOCC5)sc34)CC2)c1 [P-0548, N-[(1S)-1-(3-methoxyphenyl)ethyl]-4-(6-morpholinothieno[3,2-d]pyrimidin-4-yl)piperazine-1-carboxamide] | 1 to 10 | –
C[C@H](NC(=O)N1CC2CCC1CN2c1ncnc2cc(-c3ccc(F)cc3)sc12)c1cccc(Cl)c1 (stereo partly drawn) [P-0565, N-[(1S)-1-(3-chlorophenyl)ethyl]-5-[6-(4-fluorophenyl)thieno[3,2-d]pyrimidin-4-yl]-2,5-diazabicyclo[2.2.2]octane-2-carboxamide] | 1 to 10 | –
Cc1ccc(S(=O)(=O)Nc2ccc(-c3cc4ncnc(N5CCN(C(=O)Nc6ccccc6)CC5)c4s3)cc2)cc1 [P-0625, N-phenyl-4-[6-[4-(p-tolylsulfonylamino)phenyl]thieno[3,2-d]pyrimidin-4-yl]piperazine-1-carboxamide] | 10 to 200 | –
Cn1cc(-c2cc3ncnc(N4CCN(C(=O)Nc5ccccc5)CC4)c3s2)cn1 [P-0627, 4-[6-(1-methylpyrazol-4-yl)thieno[3,2-d]pyrimidin-4-yl]-N-phenyl-piperazine-1-carboxamide] | 1 to 10 | –
Cc1ccc(S(=O)(=O)Nc2ccc(-c3ncnc4cc(-c5cnn(C)c5)sc34)cc2)cc1 [P-0628, 4-methyl-N-[4-[6-(1-methylpyrazol-4-yl)thieno[3,2-d]pyrimidin-4-yl]phenyl]benzenesulfonamide] | 0.0001 to 1 | –
CC(C)(C)c1cc2ncnc(N3CCN(C(=O)NCc4ccc(F)cc4)CC3)c2s1 [P-0637, 4-(6-tert-butylthieno[3,2-d]pyrimidin-4-yl)-N-[(4-fluorophenyl)methyl]piperazine-1-carboxamide] | 10 to 200 | –
CC(C)(C)c1cc2ncnc(N3CCN(C(=O)Nc4ccc(F)cc4)CC3)c2s1 [P-0639, 4-(6-tert-butylthieno[3,2-d]pyrimidin-4-yl)-N-(4-fluorophenyl)piperazine-1-carboxamide] | 10 to 200 | –
O=S(=O)(NC1CCN(c2ncnc3[nH]c(-c4cc(Cl)cs4)cc23)CC1)c1ccc(OC(F)(F)F)cc1 [P-0670, N-[1-[6-(4-chloro-2-thienyl)-7H-pyrrolo[2,3-d]pyrimidin-4-yl]-4-piperidyl]-4-(trifluoromethoxy)benzenesulfonamide] | 10 to 200 | –
C[C@H](NC(=O)N1CCN(c2ncnc3ccsc23)CC1(C)C)c1cccc(Cl)c1 [P-0682, N-[(1S)-1-(3-chlorophenyl)ethyl]-2,2-dimethyl-4-thieno[3,2-d]pyrimidin-4-yl-piperazine-1-carboxamide] | 10 to 200 | –
